Results: ChEMBL document CHEMBL4507298 (2021)

Legend:
[1] = molecular target: 5-hydroxytryptamine receptor 1D (Homo sapiens) (UniProt P28221); experiment: 5-HT1D CEREP ligand profiling; conditions: Compound concentration 10.0 uM
[2] = molecular target: 5-hydroxytryptamine receptor 2B (Homo sapiens) (UniProt P41595); experiment: 5-HT2B (h) (agonist site/DOI) CEREP ligand profiling; conditions: Compound concentration 10.0 uM
[3] = molecular target: Adenosine receptor A2a (Homo sapiens) (UniProt P29274); experiment: A2A (h) CEREP ligand profiling; conditions: Compound concentration 10.0 uM
[4] = molecular target: Type-1 angiotensin II receptor (Homo sapiens) (UniProt P30556); experiment: AT1 (h) CEREP ligand profiling; conditions: Compound concentration 10.0 uM
CYP2C19 = CYP2C19 (Homo sapiens, UniProt P33261); experiment: CYP2C19 inhibition CEREP ligand profiling; conditions: compound concentration 10 uM
CYP3A4 = CYP3A4 (Homo sapiens, UniProt P08684); experiment: CYP3A4 inhibition CEREP ligand profiling; conditions: compound concentration 10 uM
[5] = molecular target: T1, D(4) dopamine receptor (Homo sapiens) (UniProt P21917); experiment: D4.4 (h) CEREP ligand profiling; conditions: Compound concentration 10.0 uM
T1 sequence (whole entry): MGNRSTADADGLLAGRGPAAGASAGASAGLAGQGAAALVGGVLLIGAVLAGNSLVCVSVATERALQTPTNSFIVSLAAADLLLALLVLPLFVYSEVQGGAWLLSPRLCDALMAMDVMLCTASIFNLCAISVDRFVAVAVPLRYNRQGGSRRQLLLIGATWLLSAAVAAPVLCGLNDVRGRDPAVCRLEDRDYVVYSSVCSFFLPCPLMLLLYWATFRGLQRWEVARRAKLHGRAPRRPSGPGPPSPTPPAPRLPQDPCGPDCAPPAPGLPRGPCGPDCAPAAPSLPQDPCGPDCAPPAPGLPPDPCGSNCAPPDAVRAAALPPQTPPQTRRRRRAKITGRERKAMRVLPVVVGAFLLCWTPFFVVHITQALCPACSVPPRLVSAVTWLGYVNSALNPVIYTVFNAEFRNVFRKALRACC

[6] = molecular target: Histamine H3 receptor (Homo sapiens) (UniProt Q9Y5N1); experiment: H3 (h) CEREP ligand profiling; conditions: Compound concentration 10.0 uM
Sequence of Histamine H3 receptor (Homo sapiens) (Q9Y5N1 whole entry): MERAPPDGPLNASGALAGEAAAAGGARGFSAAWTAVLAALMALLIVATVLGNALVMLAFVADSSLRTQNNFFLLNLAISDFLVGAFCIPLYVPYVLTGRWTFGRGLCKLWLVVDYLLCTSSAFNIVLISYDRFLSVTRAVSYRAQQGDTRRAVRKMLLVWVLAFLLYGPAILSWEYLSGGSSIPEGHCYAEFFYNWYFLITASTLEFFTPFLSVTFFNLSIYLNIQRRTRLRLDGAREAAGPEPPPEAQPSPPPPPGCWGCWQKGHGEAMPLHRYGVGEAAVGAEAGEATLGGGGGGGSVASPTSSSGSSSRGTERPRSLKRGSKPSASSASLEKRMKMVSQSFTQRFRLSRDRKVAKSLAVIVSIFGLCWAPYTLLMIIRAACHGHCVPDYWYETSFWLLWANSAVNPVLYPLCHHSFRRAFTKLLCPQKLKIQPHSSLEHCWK

[7] = molecular target: Kappa-type opioid receptor (Homo sapiens) (UniProt P41145); experiment: kappa (KOP) CEREP ligand profiling; conditions: Compound concentration 10.0 uM
Sequence of Kappa-type opioid receptor (Homo sapiens) (P41145 whole entry): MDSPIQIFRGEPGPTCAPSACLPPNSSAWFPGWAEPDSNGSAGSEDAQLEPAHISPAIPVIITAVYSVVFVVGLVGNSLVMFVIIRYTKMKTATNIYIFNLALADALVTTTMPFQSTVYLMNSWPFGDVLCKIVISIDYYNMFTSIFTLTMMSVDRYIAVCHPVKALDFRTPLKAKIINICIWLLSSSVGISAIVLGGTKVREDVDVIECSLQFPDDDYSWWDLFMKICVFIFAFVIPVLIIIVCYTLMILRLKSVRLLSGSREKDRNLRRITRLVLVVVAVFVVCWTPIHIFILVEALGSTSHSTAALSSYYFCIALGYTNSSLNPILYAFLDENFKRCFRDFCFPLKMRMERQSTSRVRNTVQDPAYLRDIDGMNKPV

[8] = molecular target: Glutamate [NMDA] receptor (Homo sapiens) (UniProt Q05586+Q12879+Q13224+O15399+O60391+Q14957+Q8TCU5); experiment: NMDA CEREP ligand profiling; format: protein-complex assay; conditions: Compound concentration 10.0 uM
Phosphodiesterase 3 = Phosphodiesterase 3 (Homo sapiens, UniProt Q14432+Q13370); experiment: PDE3 (h) CEREP ligand profiling; format: protein assay
[9] = molecular target: Tyrosine 3-monooxygenase (Homo sapiens) (UniProt P07101); experiment: TH CEREP ligand profiling; conditions: Compound concentration 10.0 uM
Sequence of Tyrosine 3-monooxygenase (Homo sapiens) (P07101 whole entry): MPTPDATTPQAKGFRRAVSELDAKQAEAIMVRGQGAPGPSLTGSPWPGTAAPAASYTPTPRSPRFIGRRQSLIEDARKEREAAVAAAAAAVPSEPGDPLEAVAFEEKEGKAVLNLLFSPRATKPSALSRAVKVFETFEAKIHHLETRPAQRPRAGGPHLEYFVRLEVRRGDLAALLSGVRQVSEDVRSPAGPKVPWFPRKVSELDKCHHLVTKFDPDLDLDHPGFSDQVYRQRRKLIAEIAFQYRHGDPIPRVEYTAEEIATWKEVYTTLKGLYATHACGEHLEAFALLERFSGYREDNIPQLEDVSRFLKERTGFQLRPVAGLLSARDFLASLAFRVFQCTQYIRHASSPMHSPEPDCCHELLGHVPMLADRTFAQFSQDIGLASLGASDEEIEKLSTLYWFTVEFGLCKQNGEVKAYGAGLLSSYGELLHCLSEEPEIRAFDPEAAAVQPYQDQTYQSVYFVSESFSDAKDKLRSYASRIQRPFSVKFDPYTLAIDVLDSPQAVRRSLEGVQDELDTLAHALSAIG

[10] = molecular target: Vasopressin V2 receptor (Homo sapiens) (UniProt P30518); experiment: V2 (h) CEREP ligand profiling; conditions: Compound concentration 10.0 uM
[11] = molecular target: Tyrosine-protein kinase ABL1 (Homo sapiens) (UniProt P00519); conditions: Compound concentration 1000.0 nM
[12] = molecular target: Activin receptor type-1-like (Homo sapiens) (UniProt P37023); conditions: Compound concentration 1000.0 nM
[13] = tested on: ALK tyrosine kinase receptor (Homo sapiens), Q9UM73 [C1156Y]; conditions: Compound concentration 1000.0 nM
[14] = molecular target: 5'-AMP-activated protein kinase catalytic subunit alpha-2 (Homo sapiens) (UniProt P54646); conditions: Compound concentration 1000.0 nM
[15] = molecular target: Bone morphogenetic protein receptor type-2 (Homo sapiens) (UniProt Q13873); conditions: Compound concentration 1000.0 nM
[16] = molecular target: Serine/threonine-protein kinase BRSK1 (Homo sapiens) (UniProt Q8TDC3); conditions: Compound concentration 1000.0 nM
[17] = molecular target: Tyrosine-protein kinase BTK (Homo sapiens) (UniProt Q06187); conditions: Compound concentration 1000.0 nM
[18] = molecular target: Cyclin-dependent kinase 3 (Homo sapiens) (UniProt Q00526); conditions: Compound concentration 1000.0 nM
Sequence of Cyclin-dependent kinase 3 (Homo sapiens) (Q00526 whole entry, looked up): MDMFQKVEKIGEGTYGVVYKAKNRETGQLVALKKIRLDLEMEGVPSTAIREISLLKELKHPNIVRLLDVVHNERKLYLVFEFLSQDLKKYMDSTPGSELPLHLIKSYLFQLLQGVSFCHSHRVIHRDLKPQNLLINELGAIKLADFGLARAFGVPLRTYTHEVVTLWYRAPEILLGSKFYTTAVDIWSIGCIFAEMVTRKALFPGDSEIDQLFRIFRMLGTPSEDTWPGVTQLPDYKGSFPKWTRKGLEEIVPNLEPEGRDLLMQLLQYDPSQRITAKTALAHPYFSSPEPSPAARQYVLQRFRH

[19] = molecular target: Death-associated protein kinase 2 (Homo sapiens) (UniProt Q9UIK4); conditions: Compound concentration 1000.0 nM
[20] = molecular target: Serine/threonine-protein kinase MRCK gamma (Homo sapiens) (UniProt Q6DT37); conditions: Compound concentration 1000.0 nM
[21] = molecular target: Eukaryotic translation initiation factor 2-alpha kinase 1 (Homo sapiens) (UniProt Q9BQI3); conditions: Compound concentration 1000.0 nM
[22] = molecular target: Ephrin type-A receptor 1 (Homo sapiens) (UniProt P21709); conditions: Compound concentration 1000.0 nM
[23] = molecular target: Rhodopsin kinase GRK7 (Homo sapiens) (UniProt Q8WTQ7); conditions: Compound concentration 1000.0 nM
Sequence of Rhodopsin kinase GRK7 (Homo sapiens) (Q8WTQ7 whole entry): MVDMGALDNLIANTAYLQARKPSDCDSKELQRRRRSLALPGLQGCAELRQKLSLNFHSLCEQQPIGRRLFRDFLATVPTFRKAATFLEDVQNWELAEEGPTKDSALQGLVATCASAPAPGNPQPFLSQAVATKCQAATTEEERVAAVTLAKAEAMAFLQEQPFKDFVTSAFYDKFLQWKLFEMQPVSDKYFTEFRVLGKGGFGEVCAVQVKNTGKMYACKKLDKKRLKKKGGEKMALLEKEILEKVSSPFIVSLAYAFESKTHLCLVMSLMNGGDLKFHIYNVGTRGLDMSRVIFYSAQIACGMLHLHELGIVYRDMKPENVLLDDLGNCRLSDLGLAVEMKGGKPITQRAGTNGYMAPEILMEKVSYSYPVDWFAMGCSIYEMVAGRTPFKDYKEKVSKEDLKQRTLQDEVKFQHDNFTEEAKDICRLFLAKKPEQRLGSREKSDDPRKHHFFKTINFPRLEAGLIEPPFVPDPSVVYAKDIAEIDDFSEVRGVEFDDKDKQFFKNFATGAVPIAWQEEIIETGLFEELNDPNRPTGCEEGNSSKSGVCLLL

[24] = molecular target: Dual specificity mitogen-activated protein kinase kinase 3 (Homo sapiens) (UniProt P46734); conditions: Compound concentration 1000.0 nM
[25] = molecular target: Maternal embryonic leucine zipper kinase (Homo sapiens) (UniProt Q14680); conditions: Compound concentration 1000.0 nM
[26] = molecular target: Mitogen-activated protein kinase kinase kinase 11 (Homo sapiens) (UniProt Q16584); conditions: Compound concentration 1000.0 nM
Sequence of Mitogen-activated protein kinase kinase kinase 11 (Homo sapiens) (Q16584 whole entry, looked up): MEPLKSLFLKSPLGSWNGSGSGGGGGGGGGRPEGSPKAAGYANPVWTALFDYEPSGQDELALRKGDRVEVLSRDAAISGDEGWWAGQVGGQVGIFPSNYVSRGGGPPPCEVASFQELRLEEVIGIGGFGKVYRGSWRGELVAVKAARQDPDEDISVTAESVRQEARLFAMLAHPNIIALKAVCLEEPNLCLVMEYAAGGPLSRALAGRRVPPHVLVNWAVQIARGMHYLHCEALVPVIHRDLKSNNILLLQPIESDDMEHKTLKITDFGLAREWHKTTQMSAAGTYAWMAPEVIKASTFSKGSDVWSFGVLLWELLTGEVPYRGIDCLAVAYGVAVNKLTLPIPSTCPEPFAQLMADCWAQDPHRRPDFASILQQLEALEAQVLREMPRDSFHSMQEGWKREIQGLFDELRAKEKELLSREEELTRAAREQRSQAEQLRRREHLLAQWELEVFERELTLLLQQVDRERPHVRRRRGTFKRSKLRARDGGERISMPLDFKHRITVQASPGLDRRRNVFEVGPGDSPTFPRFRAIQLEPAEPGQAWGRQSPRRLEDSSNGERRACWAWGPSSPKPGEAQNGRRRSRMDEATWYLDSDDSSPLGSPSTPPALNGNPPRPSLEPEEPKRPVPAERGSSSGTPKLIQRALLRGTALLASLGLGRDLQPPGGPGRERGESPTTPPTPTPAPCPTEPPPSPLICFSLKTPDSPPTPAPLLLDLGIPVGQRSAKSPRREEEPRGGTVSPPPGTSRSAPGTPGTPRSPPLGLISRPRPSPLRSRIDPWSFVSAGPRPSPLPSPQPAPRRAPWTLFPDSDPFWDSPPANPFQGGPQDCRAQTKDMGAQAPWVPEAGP

[27] = molecular target: Serine/threonine-protein kinase 24 (Homo sapiens) (UniProt Q9Y6E0); conditions: Compound concentration 1000.0 nM
Sequence of Serine/threonine-protein kinase 24 (Homo sapiens) (Q9Y6E0 whole entry, looked up): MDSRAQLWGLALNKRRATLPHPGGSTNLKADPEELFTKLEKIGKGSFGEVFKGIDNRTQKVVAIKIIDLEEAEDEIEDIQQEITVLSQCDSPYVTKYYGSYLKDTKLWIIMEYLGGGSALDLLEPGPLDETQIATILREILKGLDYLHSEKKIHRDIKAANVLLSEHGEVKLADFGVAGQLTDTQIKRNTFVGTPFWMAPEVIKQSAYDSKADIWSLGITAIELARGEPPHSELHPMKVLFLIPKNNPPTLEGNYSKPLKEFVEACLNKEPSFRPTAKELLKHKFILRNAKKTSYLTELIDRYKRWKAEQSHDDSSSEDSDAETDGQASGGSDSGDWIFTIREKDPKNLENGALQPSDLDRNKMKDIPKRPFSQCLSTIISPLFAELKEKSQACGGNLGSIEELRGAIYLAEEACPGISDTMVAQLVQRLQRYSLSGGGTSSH

[28] = molecular target: Mitogen-activated protein kinase kinase kinase 14 (Homo sapiens) (UniProt Q99558); conditions: Compound concentration 1000.0 nM
[29] = molecular target: Serine/threonine-protein kinase D3 (Homo sapiens) (UniProt O94806); conditions: Compound concentration 1000.0 nM
[30] = tested on: Proto-oncogene tyrosine-protein kinase receptor Ret (Homo sapiens), P07949 [V804L]; conditions: Compound concentration 1000.0 nM
Sequence of Proto-oncogene tyrosine-protein kinase receptor Ret (Homo sapiens), P07949 [V804L] (P07949 whole entry V804L): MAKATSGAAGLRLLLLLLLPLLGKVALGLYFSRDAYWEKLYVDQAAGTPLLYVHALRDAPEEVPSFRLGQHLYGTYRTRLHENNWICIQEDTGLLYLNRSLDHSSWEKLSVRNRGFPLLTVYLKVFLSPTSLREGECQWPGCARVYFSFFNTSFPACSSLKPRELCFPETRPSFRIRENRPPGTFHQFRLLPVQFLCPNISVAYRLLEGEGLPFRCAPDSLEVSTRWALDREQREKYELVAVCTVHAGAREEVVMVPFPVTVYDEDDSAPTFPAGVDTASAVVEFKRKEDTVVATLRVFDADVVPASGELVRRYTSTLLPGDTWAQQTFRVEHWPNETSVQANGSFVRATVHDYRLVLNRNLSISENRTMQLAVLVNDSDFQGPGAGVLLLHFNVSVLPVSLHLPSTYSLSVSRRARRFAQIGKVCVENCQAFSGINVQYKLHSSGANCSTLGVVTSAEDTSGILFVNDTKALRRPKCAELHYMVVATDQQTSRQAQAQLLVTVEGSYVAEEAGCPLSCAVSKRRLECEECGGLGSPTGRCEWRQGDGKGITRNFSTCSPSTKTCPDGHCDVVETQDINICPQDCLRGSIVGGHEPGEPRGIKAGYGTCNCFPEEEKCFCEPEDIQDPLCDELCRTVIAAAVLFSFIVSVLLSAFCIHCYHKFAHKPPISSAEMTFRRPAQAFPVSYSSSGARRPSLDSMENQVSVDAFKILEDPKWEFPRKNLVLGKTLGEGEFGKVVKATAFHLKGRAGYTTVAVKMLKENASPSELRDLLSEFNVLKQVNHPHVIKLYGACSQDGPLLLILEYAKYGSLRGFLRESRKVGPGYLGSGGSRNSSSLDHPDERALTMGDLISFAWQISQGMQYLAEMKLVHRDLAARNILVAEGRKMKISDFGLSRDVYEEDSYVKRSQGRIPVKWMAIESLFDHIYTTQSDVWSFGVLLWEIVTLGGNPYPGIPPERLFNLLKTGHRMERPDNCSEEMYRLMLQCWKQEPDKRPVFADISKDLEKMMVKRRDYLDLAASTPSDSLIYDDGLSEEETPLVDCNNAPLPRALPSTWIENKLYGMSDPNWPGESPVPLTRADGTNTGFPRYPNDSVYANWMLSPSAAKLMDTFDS

[31] = molecular target: Ribosomal protein S6 kinase alpha-4 (Homo sapiens) (UniProt O75676); conditions: Compound concentration 1000.0 nM
[32] = molecular target: Serine/threonine-protein kinase 16 (Homo sapiens) (UniProt O75716); conditions: Compound concentration 1000.0 nM
[33] = molecular target: STE20/SPS1-related proline-alanine-rich protein kinase (Homo sapiens) (UniProt Q9UEW8); conditions: Compound concentration 1000.0 nM
[34] = molecular target: TRAF2 and NCK-interacting protein kinase (Homo sapiens) (UniProt Q9UKE5); conditions: Compound concentration 1000.0 nM
[35] = molecular target: Transient receptor potential cation channel subfamily M member 6 (Homo sapiens) (UniProt Q9BX84); conditions: Compound concentration 1000.0 nM
[36] = molecular target: 5-hydroxytryptamine receptor 5A (Homo sapiens) (UniProt P47898); conditions: Compound concentration 10.0 uM
[37] = molecular target: 5-hydroxytryptamine receptor 7 (Homo sapiens) (UniProt P34969); conditions: Compound concentration 10.0 uM

Sequence of 5-hydroxytryptamine receptor 1D (Homo sapiens) (P28221 whole entry): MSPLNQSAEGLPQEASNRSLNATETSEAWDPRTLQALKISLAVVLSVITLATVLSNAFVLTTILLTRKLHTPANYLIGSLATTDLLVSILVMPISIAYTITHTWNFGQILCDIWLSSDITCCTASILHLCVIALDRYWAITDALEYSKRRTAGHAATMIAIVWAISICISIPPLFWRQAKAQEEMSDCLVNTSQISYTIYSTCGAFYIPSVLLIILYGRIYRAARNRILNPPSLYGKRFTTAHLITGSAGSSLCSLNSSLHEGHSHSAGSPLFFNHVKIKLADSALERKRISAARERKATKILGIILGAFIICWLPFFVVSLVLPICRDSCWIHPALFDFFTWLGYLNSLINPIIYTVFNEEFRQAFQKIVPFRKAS

COc1ccc2cc(OCC3(C(=O)O)CN(C(=O)c4ccc(F)cc4)C3)ccc2c1 [PF-04418948]
inhibition [1]: -10% | inhibition [2]: 13% | inhibition [3]: -9% | inhibition [4]: 1% | inhibition at 10 µM (CYP2C19): 5% (not active) | inhibition at 10 µM (CYP3A4): 17% (not active) | inhibition [5]: -8% | inhibition [6]: 10% | inhibition [7]: 46% | inhibition [8]: 1% | IC50 (Phosphodiesterase 3): 3.5 µM | inhibition (Phosphodiesterase 3; Compound concentration 10.0 uM): 78% | inhibition [9]: -10% | inhibition [10]: -1% | residual activity [11]: 78% | residual activity [12]: 93% | residual activity [13]: 79% | residual activity [14]: 28% | residual activity [15]: 87% | residual activity [16]: 85% | residual activity [17]: 84% | residual activity [18]: 83% | residual activity [19]: 98% | residual activity [20]: 91% | residual activity [21]: 94% | residual activity [22]: 83% | residual activity [23]: 93% | residual activity [24]: 95% | residual activity [25]: 86% | residual activity [26]: 79% | residual activity [27]: 85% | residual activity [28]: 82% | residual activity [29]: 91% | residual activity [30]: 78% | residual activity [31]: 85% | residual activity [32]: 88% | residual activity [33]: 55% | residual activity [34]: 61% | residual activity [35]: 98% | inhibition [36]: -8.97% | inhibition [37]: -9.26%
